Experimental findings from ChEMBL document CHEMBL1127756 (Bioorg Med Chem Lett, 1994) are described below.

Numbered stars: 1 amine (or outer) side, 2 acyl side, 3 side chain; on linkers, the order of the positions; unused ones are H or OH. Square brackets hold non-standard residues; d marks the D form. Peptide text beside a SMILES is read from it. X1 = C/C=C/CC[C@H](N[*:1])C(=O)[*:2]; pGlu = O=C1CC[C@@H](C(=O)O)N1; Ahp(2) = CCCCC[C@H](N)C(=O)O

The target of test [1] is T1, Gastrin/cholecystokinin type B receptor (Mus musculus, UniProt P56481).
T1 sequence (P56481 whole entry): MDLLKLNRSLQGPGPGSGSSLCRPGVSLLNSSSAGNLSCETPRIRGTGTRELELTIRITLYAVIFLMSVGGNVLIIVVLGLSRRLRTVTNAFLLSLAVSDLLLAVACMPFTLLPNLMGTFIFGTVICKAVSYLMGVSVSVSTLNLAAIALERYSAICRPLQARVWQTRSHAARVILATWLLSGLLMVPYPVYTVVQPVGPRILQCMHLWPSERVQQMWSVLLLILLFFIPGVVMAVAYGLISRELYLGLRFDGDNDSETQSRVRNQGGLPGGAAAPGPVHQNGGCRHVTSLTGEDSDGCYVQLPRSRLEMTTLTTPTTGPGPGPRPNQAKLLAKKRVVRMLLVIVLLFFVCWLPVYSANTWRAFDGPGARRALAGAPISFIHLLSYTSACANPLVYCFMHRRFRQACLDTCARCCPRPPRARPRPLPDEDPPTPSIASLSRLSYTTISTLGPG
Briefly: Concentration producing half-maximal inhibition of specific binding of [125I]Bolton-Hunter CCK-8 to Cholecystokinin type B receptor in the mouse cerebral cortex. Type of test: tissue-based.

Test [2] has as its target T2, Cholecystokinin receptor type A (Rattus norvegicus, UniProt P30551).
T2 sequence (P30551 whole entry): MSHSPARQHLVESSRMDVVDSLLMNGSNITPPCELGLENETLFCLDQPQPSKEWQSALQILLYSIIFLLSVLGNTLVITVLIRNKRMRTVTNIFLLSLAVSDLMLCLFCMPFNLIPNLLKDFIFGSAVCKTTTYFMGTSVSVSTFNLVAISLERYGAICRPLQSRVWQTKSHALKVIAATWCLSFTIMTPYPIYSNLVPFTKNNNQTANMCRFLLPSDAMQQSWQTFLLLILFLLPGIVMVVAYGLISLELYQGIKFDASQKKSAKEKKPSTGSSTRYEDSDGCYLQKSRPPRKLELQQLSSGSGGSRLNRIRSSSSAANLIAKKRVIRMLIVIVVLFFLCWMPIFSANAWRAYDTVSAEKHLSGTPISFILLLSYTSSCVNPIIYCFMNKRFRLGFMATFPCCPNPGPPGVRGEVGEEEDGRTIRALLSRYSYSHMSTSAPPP
Description: Concentration producing half-maximal inhibition of specific binding of [125I]Bolton-Hunter CCK-8 to Cholecystokinin type A receptor in the rat pancreas.

For another test, the target named is T3, Substance-K receptor (Mesocricetus auratus, UniProt P51144).
T3 sequence (P51144 whole entry): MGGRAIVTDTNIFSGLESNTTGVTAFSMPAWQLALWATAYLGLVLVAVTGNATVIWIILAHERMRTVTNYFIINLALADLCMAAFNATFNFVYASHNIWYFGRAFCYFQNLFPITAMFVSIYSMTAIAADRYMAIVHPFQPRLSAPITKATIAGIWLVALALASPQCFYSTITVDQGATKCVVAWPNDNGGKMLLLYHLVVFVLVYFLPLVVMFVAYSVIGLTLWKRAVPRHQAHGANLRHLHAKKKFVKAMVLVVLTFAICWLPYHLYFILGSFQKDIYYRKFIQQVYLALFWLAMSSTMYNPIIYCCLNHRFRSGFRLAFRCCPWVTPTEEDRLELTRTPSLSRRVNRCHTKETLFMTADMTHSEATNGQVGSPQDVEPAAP
Briefly: (§1) Concentration producing half-maximal inhibition of specific binding of. [125I]neurokinin A to NK-2 receptors in the hamster urinary bladder. In kind it is single protein.

The target of a further test is T4, Neuromedin-K receptor (Cavia porcellus, UniProt P30098).
T4 sequence (P30098 whole entry): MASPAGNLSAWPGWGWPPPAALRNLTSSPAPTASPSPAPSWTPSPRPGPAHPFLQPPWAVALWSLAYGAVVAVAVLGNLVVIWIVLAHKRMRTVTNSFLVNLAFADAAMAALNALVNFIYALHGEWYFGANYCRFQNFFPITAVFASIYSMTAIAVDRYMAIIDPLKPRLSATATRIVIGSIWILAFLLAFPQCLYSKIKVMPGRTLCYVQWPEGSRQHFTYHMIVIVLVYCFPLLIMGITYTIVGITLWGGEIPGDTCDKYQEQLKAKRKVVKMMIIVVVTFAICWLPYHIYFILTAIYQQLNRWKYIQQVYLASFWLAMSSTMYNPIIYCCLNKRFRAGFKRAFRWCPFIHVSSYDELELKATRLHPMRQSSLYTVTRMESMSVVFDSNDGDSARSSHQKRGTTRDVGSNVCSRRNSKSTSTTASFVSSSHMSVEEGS
Briefly: (§2) Concentration producing half-maximal inhibition of specific binding of [3H]senktide to Tachykinin receptor 3 in the guinea pig cerebral cortex. Type of test: tissue-based.

A further test deals with Substance-P receptor (Cavia porcellus, UniProt P30547). Briefly: Concentration producing half-maximal inhibition of specific binding of. [125I]Bolton-Hunter Substance P to NK-1 receptors in the guinea pig cerebral cortex. Type of test: tissue-based.
Chain of Substance-P receptor (P30547 whole entry): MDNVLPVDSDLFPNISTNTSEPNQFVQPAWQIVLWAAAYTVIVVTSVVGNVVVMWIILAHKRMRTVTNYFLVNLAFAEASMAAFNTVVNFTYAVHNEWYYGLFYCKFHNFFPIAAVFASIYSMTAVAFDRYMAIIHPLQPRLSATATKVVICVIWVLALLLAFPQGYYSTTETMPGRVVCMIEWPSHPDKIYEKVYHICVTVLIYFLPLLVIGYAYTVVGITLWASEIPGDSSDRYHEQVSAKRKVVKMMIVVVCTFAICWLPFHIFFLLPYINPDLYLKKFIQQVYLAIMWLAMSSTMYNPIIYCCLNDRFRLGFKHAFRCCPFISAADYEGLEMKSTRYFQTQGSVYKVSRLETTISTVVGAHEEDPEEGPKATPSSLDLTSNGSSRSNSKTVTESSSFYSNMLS
The target in test [3] is T5, Substance-K receptor (Mesocricetus auratus) (UniProt P51144).
T5 sequence (whole entry): T3 sequence (P51144 whole entry)
Described as §1. Particulars: Cricetulus griseus.

In test [4] the target is T6, Neuromedin-K receptor (Cavia porcellus) (UniProt P30098).
T6 sequence (whole entry): T4 sequence (P30098 whole entry)
The description is as §2. In kind it is tissue-based.

The IC50 is the concentration that inhibits the measured activity by half. A high value points to weaker potency in that assay. On to `C/C=C/CC[C@H](NC(=O)[C@@H](N)Cc1c[nH]c2ccccc12)C(=O)N[C@@H](CC(=O)O)C(=O)N[C@@H](Cc1ccccc1)C(N)=O`, for which the figures for the IC50 in test [1] and in test [2] were 4.9 nM and 8160 nM, respectively.

Regarding `CCCCC[C@H](NC(=O)[C@H](CC(C)C)NC(=O)CNC(=O)[C@H](Cc1ccccc1)NC(=O)[C@H](Cc1ccccc1)NC(=O)[C@H](CCC(N)=O)NC(=O)[C@H](CCC(N)=O)NC(C)=O)C(N)=O` (Ac-QQFFGL[Ahp(2)]-NH2), the IC50 at Substance-K receptor came to 637 nM; on Neuromedin-K receptor, 533 nM; at Substance-P receptor, 44.7 nM.

For the compound `C/C=C/CC[C@H](NC(=O)[C@H](CC(C)C)NC(=O)CNC(=O)[C@H](Cc1ccccc1)NC(=O)[C@H](Cc1ccccc1)NC(=O)[C@H](CCC(N)=O)NC(=O)[C@H](CCC(N)=O)NC(C)=O)C(N)=O` (Ac-QQFFGL[X1]-NH2), the IC50 on Substance-K receptor was 1370 nM; at Neuromedin-K receptor, 882 nM; on Substance-P receptor it was 115 nM.

`CCCCC[C@H](NC(=O)[C@@H](N)Cc1c[nH]c2ccccc12)C(=O)N[C@@H](CC(=O)O)C(=O)N[C@@H](Cc1ccccc1)C(N)=O` (H-W[Ahp(2)]DF-NH2): the IC50 came to 2.83 nM in test [1] and 8490 nM in test [2].

Regarding `CSCC[C@H](NC(=O)[C@H](CC(C)C)NC(=O)CNC(=O)[C@H](Cc1ccccc1)NC(=O)[C@H](Cc1ccccc1)NC(=O)[C@H](CCC(N)=O)NC(=O)[C@@H]1CCC(=O)N1)C(N)=O` ([pGlu]QFFGLM-NH2), at Substance-P receptor, the IC50 turned out to be 25.4 nM.

The term inhibition denotes the drop in the measured response relative to a control, in per cent. Take `CCCCC[C@H](NC(=O)[C@H](CC(C)C)NC(=O)CNC(=O)[C@H](Cc1ccccc1)NC(=O)[C@H](Cc1ccccc1)NC(=O)[C@H](CCC(N)=O)NC(=O)[C@@H]1CCC(=O)N1)C(N)=O` ([pGlu]QFFGL[Ahp(2)]-NH2): the inhibition in test [3] worked out at 47%; in test [4] it was 25%. The IC50 at Substance-P receptor is 97 nM.

On to `C/C=C/CC[C@H](NC(=O)[C@H](CC(C)C)NC(=O)CNC(=O)[C@H](Cc1ccccc1)NC(=O)[C@H](Cc1ccccc1)NC(=O)[C@H](CCC(N)=O)NC(=O)[C@@H]1CCC(=O)N1)C(N)=O` ([pGlu]QFFGL[X1]-NH2), for which the values for the IC50 on Substance-K receptor, at Neuromedin-K receptor and on Substance-P receptor were 2900 nM, 1880 nM and 366 nM, respectively.

Take `CSCC[C@H](NC(=O)[C@@H](N)Cc1c[nH]c2ccccc12)C(=O)N[C@@H](CC(=O)O)C(=O)N[C@@H](Cc1ccccc1)C(N)=O` [TETRAGASTRIN]: the IC50 in test [2] was 4250 nM.

On to Ac-QQFFGLM-NH2, for which the IC50 at Substance-K receptor worked out at 1620 nM; at Neuromedin-K receptor, 276 nM; at Substance-P receptor, 29.5 nM.

For H-QQFFGLM-NH2, the IC50 at Substance-K receptor came to 3290 nM; at Neuromedin-K receptor, 1130 nM; on Substance-P receptor it was 49.6 nM.
